Key:
Assay in all cases: relative viability (nuclei count vs DMSO), 5 days (fraction); higher = more cells survive
ChaGo-K-1 = test system: ChaGo-K-1
Method in brief: (§1)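 For relative viability, nuclei counts in treated wells were divided by those in vehicle wells. Lung cancer cell lines had been pin-tool dosed in 1536-well plates the day after seeding and cultured for 5 days, then fixed and stained in one step (final 0.05% Triton X-100, 1% formaldehyde, 1 ug/ml Hoechst) and imaged at 4×. Doses were one drug alone or a fixed anchor-drug dose plus five library-drug doses (not always all listed) in √10 steps, and values are duplicate-plate medians.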

EKVX = test system: EKVX
Method in brief: as §1

EMC-BAC-2 = test system: EMC-BAC-2
Method in brief: as §1

EPLC-272H = test system: EPLC-272H
Method in brief: as §1

HCC-78 = test system: HCC-78
Method in brief: as §1

HCC-827 = test system: HCC-827
Method in brief: as §1

LCLC-103H = test system: LCLC-103H
Method in brief: as §1

LK-2 = test system: LK-2
Method in brief: as §1

LU99A = test system: LU99A
Method in brief: as §1

NCI-H1563 = test system: NCI-H1563
Method in brief: as §1

NCI-H1666 = test system: NCI-H1666
Method in brief: as §1

NCI-H1975 = test system: NCI-H1975
Method in brief: as §1

NCI-H2126 = test system: NCI-H2126
Method in brief: as §1

NCI-H23 = test system: NCI-H23
Method in brief: as §1

NCI-H2405 = test system: NCI-H2405
Method in brief: as §1

NCI-H322M = test system: NCI-H322M
Method in brief: as §1

PC-14 = test system: PC-14
Method in brief: as §1

RERF-LC-KJ = test system: RERF-LC-KJ
Method in brief: as §1

SK-LU-1 = test system: SK-LU-1
Method in brief: as §1

SW 1573 = test system: SW 1573
Method in brief: as §1

CC(=O)O[C@@]12CO[C@@H]1C[C@H](O)[C@@]1(C)C(=O)[C@H](O)C3=C(C)[C@@H](OC(=O)[C@H](O)[C@@H](NC(=O)OC(C)(C)C)c4ccccc4)C[C@@](O)([C@@H](OC(=O)c4ccccc4)[C@H]21)C3(C)C [Docetaxel] + CS(=O)(=O)N1CCN(Cc2cc3nc(-c4cccc5[nH]ncc45)nc(N4CCOCC4)c3s2)CC1 [Pictilisib] (partner 1 µM)
relative viability (ChaGo-K-1; first compound 0.0002 µM): 0.771
relative viability (ChaGo-K-1; first compound 0.000632 µM): 0.421
relative viability (ChaGo-K-1; first compound 0.002 µM): 0.44
relative viability (ChaGo-K-1; first compound 0.006325 µM): 0.354
relative viability (ChaGo-K-1; first compound 0.02 µM): 0.201
relative viability (EKVX; first compound 0.0002 µM): 0.447
relative viability (EKVX; first compound 0.000632 µM): 0.45
relative viability (EKVX; first compound 0.002 µM): 0.26
relative viability (EKVX; first compound 0.006325 µM): 0.187
relative viability (EKVX; first compound 0.02 µM): 0.119
relative viability (EMC-BAC-2; first compound 0.0002 µM): 0.555
relative viability (EMC-BAC-2; first compound 0.000632 µM): 0.469
relative viability (EMC-BAC-2; first compound 0.002 µM): 0.324
relative viability (EMC-BAC-2; first compound 0.006325 µM): 0.271
relative viability (EMC-BAC-2; first compound 0.02 µM): 0.207
relative viability (EPLC-272H; first compound 0.0002 µM): 0.27
relative viability (EPLC-272H; first compound 0.000632 µM): 0.198
relative viability (EPLC-272H; first compound 0.002 µM): 0.161
relative viability (EPLC-272H; first compound 0.006325 µM): 0.111
relative viability (EPLC-272H; first compound 0.02 µM): 0.126
relative viability (HCC-78; first compound 0.0002 µM): 0.204
relative viability (HCC-78; first compound 0.000632 µM): 0.185
relative viability (HCC-78; first compound 0.002 µM): 0.172
relative viability (HCC-78; first compound 0.006325 µM): 0.166
relative viability (HCC-78; first compound 0.02 µM): 0.204
relative viability (HCC-827; first compound 0.0002 µM): 0.904
relative viability (HCC-827; first compound 0.000632 µM): 1.08
relative viability (HCC-827; first compound 0.002 µM): 0.787
relative viability (HCC-827; first compound 0.006325 µM): 0.466
relative viability (HCC-827; first compound 0.02 µM): 0.363
relative viability (LCLC-103H; first compound 0.0002 µM): 0.537
relative viability (LCLC-103H; first compound 0.000632 µM): 0.514
relative viability (LCLC-103H; first compound 0.002 µM): 0.612
relative viability (LCLC-103H; first compound 0.006325 µM): 0.455
relative viability (LCLC-103H; first compound 0.02 µM): 0.251
relative viability (LK-2; first compound 0.0002 µM): 0.496
relative viability (LK-2; first compound 0.000632 µM): 0.404
relative viability (LK-2; first compound 0.002 µM): 0.216
relative viability (LK-2; first compound 0.006325 µM): 0.25
relative viability (LK-2; first compound 0.02 µM): 0.203
relative viability (LU99A; first compound 0.0002 µM): 0.337
relative viability (LU99A; first compound 0.000632 µM): 0.249
relative viability (LU99A; first compound 0.002 µM): 0.267
relative viability (LU99A; first compound 0.006325 µM): 0.191
relative viability (LU99A; first compound 0.02 µM): 0.148
relative viability (NCI-H1563; first compound 0.0002 µM): 0.662
relative viability (NCI-H1563; first compound 0.000632 µM): 0.683
relative viability (NCI-H1563; first compound 0.002 µM): 0.71
relative viability (NCI-H1563; first compound 0.006325 µM): 0.564
relative viability (NCI-H1563; first compound 0.02 µM): 0.506
relative viability (NCI-H1666; first compound 0.0002 µM): 0.4
relative viability (NCI-H1666; first compound 0.000632 µM): 0.431
relative viability (NCI-H1666; first compound 0.002 µM): 0.273
relative viability (NCI-H1666; first compound 0.006325 µM): 0.198
relative viability (NCI-H1666; first compound 0.02 µM): 0.169
relative viability (NCI-H1975; first compound 0.0002 µM): 0.3
relative viability (NCI-H1975; first compound 0.000632 µM): 0.261
relative viability (NCI-H1975; first compound 0.002 µM): 0.213
relative viability (NCI-H1975; first compound 0.006325 µM): 0.156
relative viability (NCI-H1975; first compound 0.02 µM): 0.121
relative viability (NCI-H2126; first compound 0.0002 µM): 0.518
relative viability (NCI-H2126; first compound 0.000632 µM): 0.541
relative viability (NCI-H2126; first compound 0.002 µM): 0.393
relative viability (NCI-H2126; first compound 0.006325 µM): 0.362
relative viability (NCI-H2126; first compound 0.02 µM): 0.257
relative viability (NCI-H23; first compound 0.0002 µM): 0.499
relative viability (NCI-H23; first compound 0.000632 µM): 0.403
relative viability (NCI-H23; first compound 0.002 µM): 0.248
relative viability (NCI-H23; first compound 0.006325 µM): 0.185
relative viability (NCI-H23; first compound 0.02 µM): 0.144
relative viability (NCI-H2405; first compound 0.0002 µM): 0.393
relative viability (NCI-H2405; first compound 0.000632 µM): 0.429
relative viability (NCI-H2405; first compound 0.002 µM): 0.39
relative viability (NCI-H2405; first compound 0.006325 µM): 0.272
relative viability (NCI-H2405; first compound 0.02 µM): 0.182
relative viability (NCI-H322M; first compound 0.0002 µM): 0.433
relative viability (NCI-H322M; first compound 0.000632 µM): 0.493
relative viability (NCI-H322M; first compound 0.002 µM): 0.492
relative viability (NCI-H322M; first compound 0.006325 µM): 0.381
relative viability (NCI-H322M; first compound 0.02 µM): 0.313
relative viability (PC-14; first compound 0.0002 µM): 0.629
relative viability (PC-14; first compound 0.000632 µM): 0.376
relative viability (PC-14; first compound 0.002 µM): 0.0774
relative viability (PC-14; first compound 0.006325 µM): 0.0423
relative viability (PC-14; first compound 0.02 µM): 0.0293
relative viability (RERF-LC-KJ; first compound 0.0002 µM): 0.525
relative viability (RERF-LC-KJ; first compound 0.000632 µM): 0.408
relative viability (RERF-LC-KJ; first compound 0.002 µM): 0.189
relative viability (RERF-LC-KJ; first compound 0.006325 µM): 0.223
relative viability (RERF-LC-KJ; first compound 0.02 µM): 0.104
relative viability (SK-LU-1; first compound 0.0002 µM): 0.608
relative viability (SK-LU-1; first compound 0.000632 µM): 0.305
relative viability (SK-LU-1; first compound 0.002 µM): 0.253
relative viability (SK-LU-1; first compound 0.006325 µM): 0.181
relative viability (SK-LU-1; first compound 0.02 µM): 0.171
relative viability (SW 1573; first compound 0.0002 µM): 0.372
relative viability (SW 1573; first compound 0.000632 µM): 0.314
relative viability (SW 1573; first compound 0.002 µM): 0.196
relative viability (SW 1573; first compound 0.006325 µM): 0.153
relative viability (SW 1573; first compound 0.02 µM): 0.144

— the supplement of paper PMC10307832
